Test results taken from patent EP4778929A1, “NOVEL TYPE I TOPOISOMERASE INHIBITOR, AND PREPARATION METHOD THEREFOR AND USE THEREOF” (priority 2023, dated 2025).
Like-named read-outs stand apart in the source and are kept apart here.

Tests used:
[1] = molecular target: T1, topoisomerase I (Topo I) (Homo sapiens, UniProt P11387); assay: Topo I enzyme-inhibitory activity by agarose-gel electrophoresis (plasmid relaxation); assay type: biochemical
T1 sequence (P11387 1-765): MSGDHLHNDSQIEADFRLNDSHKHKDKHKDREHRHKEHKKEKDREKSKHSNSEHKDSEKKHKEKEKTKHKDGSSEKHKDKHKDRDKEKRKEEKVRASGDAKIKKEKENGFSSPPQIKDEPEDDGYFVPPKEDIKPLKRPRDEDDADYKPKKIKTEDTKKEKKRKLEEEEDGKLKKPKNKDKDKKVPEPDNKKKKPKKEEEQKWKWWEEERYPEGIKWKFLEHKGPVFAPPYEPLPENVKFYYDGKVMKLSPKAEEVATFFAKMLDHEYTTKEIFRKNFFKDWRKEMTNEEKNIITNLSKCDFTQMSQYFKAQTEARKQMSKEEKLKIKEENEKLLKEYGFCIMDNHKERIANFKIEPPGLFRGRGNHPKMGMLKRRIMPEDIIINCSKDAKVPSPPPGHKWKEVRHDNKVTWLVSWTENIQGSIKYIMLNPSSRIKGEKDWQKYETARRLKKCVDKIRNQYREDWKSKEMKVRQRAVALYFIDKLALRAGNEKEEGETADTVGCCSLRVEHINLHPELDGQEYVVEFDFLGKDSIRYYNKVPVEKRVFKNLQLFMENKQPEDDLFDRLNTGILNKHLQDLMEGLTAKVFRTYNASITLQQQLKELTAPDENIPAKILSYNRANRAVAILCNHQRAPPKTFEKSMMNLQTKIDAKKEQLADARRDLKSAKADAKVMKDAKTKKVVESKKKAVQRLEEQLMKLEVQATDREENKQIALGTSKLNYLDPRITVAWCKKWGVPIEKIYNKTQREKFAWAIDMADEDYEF
Description: Test Example 1. Determination of Topo I Enzyme-Inhibitory Activity by Agarose-Gel Electrophoresis
Principle: Type-I topoisomerase (Topo I) relaxes positive and negative supercoils by introducing transient single-strand breaks and forming reversible cleavage complexes (Topo I-DNA covalent complexes). Gel electrophoresis can resolve DNA species of identical molecular weight but different topology: supercoiled plasmid migrates fastest, whereas the nicked, relaxed form moves more slowly. Quantifying the decrease in supercoiled DNA therefore provides a direct measure of Topo I activity.
Experimental Procedure: A 1× reaction buffer was prepared (20 mM Tris-HCl pH 7.5, 200 mM NaCl, 0.25 mM EDTA, 5 % (v/v) glycerol, 0.5 µg pNO1 plasmid substrate). Test compounds (5 % DMSO final) were added to the buffer, followed by Topo I enzyme (0.75 U per reaction). After gentle mixing, reactions were incubated at 37 °C for 30 min. Positive (enzyme + vehicle) and negative (no enzyme) controls were included in parallel. Reactions were terminated by adding STEB buffer and chloroform/iso-amyl alcohol (24:1, v/v), vortexed and centrifuged for 2 min. The aqueous (upper) phase was loaded onto a 1 % (w/v) agarose gel, electrophoresed for 1-2 h, stained with GelRed, and imaged under UV trans-illumination.
Data Analysis: Band intensities of supercoiled DNA were quantified with image-analysis software. Relaxation activity (%) was calculated as (Max-Sample)/ (Max-Min)*100%, where Max = intensity of the no-enzyme negative control, Min = intensity of the vehicle-only positive control, and Sample = intensity of the compound-treated lane. Dose-response data (compound concentration, X; relaxation activity %, Y) were fitted in Excel or GraphPad Prism 5.0 using the four-parameter logistic equation: Y=Bottom + (Top-Bottom)/(1+(IC50/X)[…]) to derive the IC50 value for each compound.
Table 1. Compound-mediated inhibition of topoisomerase I (Topo I) enzymatic activity

[2] = system: HCT116 cells; assay: Inhibition of cell proliferation by CTG (CellTiter-Glo) luminescence assay; assay type: cell-based; settings: Homo sapiens, read-out: HCT116, IC50
Description: Test Example 2. Determination of Compound-Mediated Inhibition of Cell Proliferation by CTG (CellTiter-Glo) Luminescence Assay
Principle: The Promega CellTiter-Glo™ luciferase reagent was used. Luciferase consumes ATP to generate light; metabolically active cells continuously produce ATP through respiration and other processes. After adding an equal volume of CellTiter-Glo™ reagent to the culture medium, the resulting luminescence is directly proportional to the ATP content, which in turn correlates with the number of viable cells. Thus, the assay quantifies compound-induced suppression of cell proliferation.
Experimental Procedure: HCT116 cells (ATCC) were revived in complete medium (McCoy's 5a + 10 % FBS). After two passages, exponentially growing cells were harvested, counted, and resuspended to the appropriate density. A 100 µL aliquot of cell suspension (2 000 cells per well) was seeded into 96-well plates and incubated overnight (37 °C, 5 % CO2, 100 % relative humidity). Test compounds were dissolved in DMSO to prepare 10 mM stock solutions and serially diluted 1:3 in DMSO to generate nine concentration steps. Each DMSO solution was further diluted 200-fold into medium; 25 µL of the resulting solutions were added to the cell plates (final DMSO concentration […]). After 72 h incubation (37 °C, 5 % CO2), 50 µL of CellTiter-Glo reagent was added per well. Plates were shaken gently, incubated for 30 min at room temperature in the dark, and luminescence was read on an EnVision multimode reader. Percent inhibition was calculated as: Inhibition % = (1−As/Ac) × 100, [formula] where As = signal from compound-treated wells and Ac = signal from DMSO-only control wells. Concentration-response data were fitted in Excel with the XLfit add-in using the four-parameter logistic equation: Y = Bottom + (Top−Bottom)/[1+((IC50/X))^(∧)HillSlope], [formula] to derive the IC50 value for each compound. Table 2. IC50 of compounds

[3] = 0.75 U Topo I, pNO1 plasmid, 37 °C, 30 min; compounds listed by group (Group A / Group B); read-out: inhibition of topoisomerase I (Topo I) enzymatic activity, IC50
[4] = HCT-116, 72 h incubation, CellTiter-Glo
[5] = read-out: inhibition of topoisomerase I (Topo I) enzymatic activity, IC50; 0.75 U Topo I, pNO1 plasmid, 37 °C, 30 min; compounds listed by group (Group A / Group B)

SMILES | IC50 [1, 3] | IC50 [2, 4] | IC50 [1, 5] | IC50 ([2]; HCT-116, 72 h)
CC[C@@]1(O)C(=O)OCc2c1cc1n(c2=O)Cc2c-1c(=O)c1ccccc1n2C [Example 1, (S)-4-ethyl-4-hydroxy-11-methyl-1,12-dihydro-14H-pyrano[3,4:6,7]indolizino[2,1 - b]quinoline-3,6,14(4H,11H)-trione] | < 200 nM | < 20 nM | – | –
CC[C@@]1(O)C(=O)OCc2c1cc1n(c2=O)Cc2c-1c(=O)c1cc(F)c(F)cc1n2C [Example 5, (S)-4-ethyl-8,9-difluoro-4-hydroxy-11-methyl-1,12-dihydro-14H-pyrano[3',4':6,7]indolizino[2,1-b]quinoline-3,6,14(4H,11H)-trione] | < 200 nM | < 20 nM | – | –
CC[C@@]1(O)C(=O)OCc2c1cc1n(c2=O)Cc2c-1c(=O)c1cc(F)ccc1n2C [Example 6, (S)-4-ethyl-8-fluoro-4-hydroxy-11-methyl-1,12-dihydro-14H-pyrano[3',4':6,7]indazino[2,1-b]quinoline-3,6,14(4H,11H)-trione] | < 200 nM | < 20 nM | – | –
CC[C@@]1(O)C(=O)OCc2c1cc1n(c2=O)Cc2c-1c(=O)c1cc(F)cc(OC)c1n2C [Example 10, (S)-4-ethyl-8-fluoro-4-hydroxy-10-methoxy-11-methyl-1,12-dihydro-14H-pyrano[3,4:6,7]indolizino[2,1-b]quinoline-3,6,14 (4H,11H)-trione] | – | – | < 200 nM | < 20 nM
CC[C@@]1(O)C(=O)OCc2c1cc1n(c2=O)Cc2c-1c(=O)c1cc(F)cnc1n2C [Example 19, (S)-7-ethyl-3-fluoro-7-hydroxy-14-methyl-10,14-dihydro-11H-pyrano[3',4':6,7]indolizino[2,1-b][1,8]diazepine-5,8,11(7H,13H)-trione] | – | – | 200 to 500 nM | < 20 nM
CCOCCc1cc(F)cc2c(=O)c3c(n(C)c12)Cn1c-3cc2c(c1=O)COC(=O)[C@]2(O)CC [Example 23, (S)-10-(2-ethoxyethyl)-4-ethyl-8-fluoro-4-hydroxy-11-methyl-1,12-dihydro-14H-pyrano[3,4:6,7]indolizino[2,1-b]quinoline-3,6,14 (4H,11H)-trione] | – | – | 200 to 500 nM | < 20 nM
CC[C@@]1(O)C(=O)OCc2c1cc1n(c2=O)Cc2c-1c(=O)c1cc(F)cc(F)c1n2C [Example 24, (S)-4-ethyl-8,10-difluoro-4-hydroxy-11-methyl-1,12-dihydro-14H-pyrano[3,4:6,7]indolizino[2,1-b]quinoline-3,6,14(4H,11H)-trione] | – | – | < 200 nM | < 20 nM
CC[C@@]1(O)C(=O)OCc2c1cc1n(c2=O)Cc2c-1c(=O)c1cc(F)ccc1n2C(C)C [Example 36, (S)-4-ethyl-8-fluoro-4-hydroxy-11-isopropyl-1,12-dihydro-14H-pyrano[3',4':6,7]indolizino[2,1-b]quinoline-3,6,14(4H,11H)-trione] | – | – | < 200 nM | < 20 nM
CC[C@@]1(O)C(=O)OCc2c1cc1n(c2=O)Cc2c-1c(=O)c1cc(F)ccc1n2C1CC1 [Example 37, (S)-4-ethyl-8-fluoro-4-hydroxy-11-cyclopropyl-1,12-dihydro-14H-pyrano[3',4':6,7]indolizino[2,1-b]quinoline-3,6,14(4H,11H)-trione] | – | – | < 200 nM | < 20 nM
CC[C@@]1(O)C(=O)OCc2c1cc1n(c2=S)Cc2c-1c(=O)c1cc(F)cc(C)c1n2C [Example 39, (S)-4-ethyl-8-fluoro-4-hydroxy-10,11-dimethyl-14-thioxo-12,14-dihydro-1H-pyrano[3',4':6,7]indolizino[2,1-b]quinoline-3,6(4H, 11H)-dione] | < 200 nM | < 20 nM | – | –
CC[C@@]1(O)C(=O)OCc2c1cc1n(c2=O)Cc2c-1c(=O)c1cc(F)ccc1n2-c1cnn(C)c1 [Example 57, (S)-4-ethyl-8-fluoro-4-hydroxy-11-(1-methyl-1H-pyrazol-4-yl)-1H-pyrano[3',4':6,7]indolizino[2,1-b]quinoline-3,6,14(4H,11H,12H) -trione] | 200 to 500 nM | < 20 nM | – | –
CC[C@@]1(O)C(=O)OCc2c1cc1n(c2=O)Cc2c-1c(=O)c1cc(F)ccc1n2-c1cccnc1 [Example 60, (S)-4-ethyl-8-fluoro-4-hydroxy-11-(pyridin-3-yl)-1H-pyrano[3',4':6,7]indolizino[2,1-b]quinoline-3,6,14(4H,11H,12H)-trione] | 200 to 500 nM | < 20 nM | – | –
CC[C@@]1(O)C(=O)OCc2c1cc1n(c2=O)Cc2c-1c(=O)c1cc(F)ccc1n2-c1cn(C2CC2)nc1C(C)O (stereo partly drawn) [Example 63, (4S)-11-(1-cyclopropyl-3-(1-hydroxyethyl)-1H-pyrazol-4-yl)-4-ethyl-8-fluoro-4-hydroxy-1,12-dihydro-14H-pyrano[3,4:6,7] indolizino[2,1-b]quinoline-3,6,14(4H,11H)-trione] | – | – | 200 to 500 nM | < 20 nM
CC[C@@]1(O)C(=O)OCc2c1cc1n(c2=O)Cc2c-1c(=O)c1cc3c(cc1n2-c1ccc(N)cc1)OCO3 [Example 67, (S)-5-(4-aminophenyl)-12-ethyl-12-hydroxy-9,12-dihydro-8H-[1,3]dioxolo[4,5-g]pyrano[3,4:6,7]indolizino[2,1-b]quinoline-8,11,14 (SH,6H)-trione] | – | – | 200 to 500 nM | < 20 nM
CC[C@@]1(O)C(=O)OCc2c1cc1n(c2=O)Cc2c-1c(=O)c1cc(F)c(C)cc1n2-c1ccc(N)cc1 [Example 68, (S)-11-(4-aminophenyl)-4-ethyl-8-fluoro-4-hydroxy-9-methyl-1,12-dihydro-14H-pyrano[3,4:6,7]indolizino[2,1-b]quinoline-3,6,14 (4H,11H)-trione] | – | – | 200 to 500 nM | < 20 nM
CC[C@@]1(O)C(=O)OCc2c1cc1n(c2=O)Cc2c-1c(=O)c1cc(F)c(N)cc1n2C1CCCC1 [Example 69, (S)-9-amino-4-ethyl-8-fluoro-4-hydroxy-11-cyclopentyl-1,12-dihydro-14H-pyrano[3,4:6,7]indolizino[2,1-b]quinoline-3,6,14(4H,11H)-trione] | < 200 nM | < 20 nM | – | –
